Activity calls are given as the source filed them.
How the values were obtained:
[1] = target: Acyl-homoserine lactone acylase PvdQ (Pseudomonas aeruginosa (strain LESB58), UniProt Q9I194); experiment: PvdQ acylase enzyme activity blockers – biochemical, fluorescence, plate reader and imaging, cherry-picks, dose response (AID 493231)
Neutrophil collagenase = Neutrophil collagenase (Homo sapiens, UniProt P22894); experiment: potency against MMP13, MMP2, MMP3, MMP14 – biochemical, probe development, late stage results, selectivity assay for MMP13 inhibitor project, late-stage follow-up, panel member MMP-8 [IC50 Assay] (AID 2067)
Sequence of Neutrophil collagenase (P22894 whole entry): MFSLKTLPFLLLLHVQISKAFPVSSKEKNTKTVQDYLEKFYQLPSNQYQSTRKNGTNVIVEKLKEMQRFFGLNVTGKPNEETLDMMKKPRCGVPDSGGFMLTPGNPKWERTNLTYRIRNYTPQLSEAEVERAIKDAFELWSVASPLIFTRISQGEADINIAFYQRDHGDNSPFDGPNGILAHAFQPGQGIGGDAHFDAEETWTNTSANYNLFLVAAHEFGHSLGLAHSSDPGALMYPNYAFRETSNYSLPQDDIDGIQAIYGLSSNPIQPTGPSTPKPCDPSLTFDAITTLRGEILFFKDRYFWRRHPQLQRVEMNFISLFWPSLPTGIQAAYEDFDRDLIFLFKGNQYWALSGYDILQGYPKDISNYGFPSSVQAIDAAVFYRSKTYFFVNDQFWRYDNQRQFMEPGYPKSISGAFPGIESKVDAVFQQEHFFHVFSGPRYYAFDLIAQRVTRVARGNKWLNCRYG

Collagenase 3 = Collagenase 3 (Homo sapiens, UniProt P45452); experiment: potency against MMP13, MMP2, MMP3, MMP14 – biochemical, probe development, late stage results, selectivity assay for MMP13 inhibitor project, late-stage follow-up, panel member MMP-13 [IC50 Assay] (AID 2067)
[2] = A Cell Based Secondary Assay To Explore Cytotoxicity of Compounds that Sensitize Mycobacterium Tuberculosis to Beta-Lactam Antibiotics.; assay type: functional
Estrogen receptor [3] = target: T1, Estrogen receptor (Homo sapiens, UniProt P03372); experiment: ERα coactivator recruitment enhancers – biochemical, TR-FRET, ERα LBD, dose response (AID 737)
T1 sequence (P03372 whole entry): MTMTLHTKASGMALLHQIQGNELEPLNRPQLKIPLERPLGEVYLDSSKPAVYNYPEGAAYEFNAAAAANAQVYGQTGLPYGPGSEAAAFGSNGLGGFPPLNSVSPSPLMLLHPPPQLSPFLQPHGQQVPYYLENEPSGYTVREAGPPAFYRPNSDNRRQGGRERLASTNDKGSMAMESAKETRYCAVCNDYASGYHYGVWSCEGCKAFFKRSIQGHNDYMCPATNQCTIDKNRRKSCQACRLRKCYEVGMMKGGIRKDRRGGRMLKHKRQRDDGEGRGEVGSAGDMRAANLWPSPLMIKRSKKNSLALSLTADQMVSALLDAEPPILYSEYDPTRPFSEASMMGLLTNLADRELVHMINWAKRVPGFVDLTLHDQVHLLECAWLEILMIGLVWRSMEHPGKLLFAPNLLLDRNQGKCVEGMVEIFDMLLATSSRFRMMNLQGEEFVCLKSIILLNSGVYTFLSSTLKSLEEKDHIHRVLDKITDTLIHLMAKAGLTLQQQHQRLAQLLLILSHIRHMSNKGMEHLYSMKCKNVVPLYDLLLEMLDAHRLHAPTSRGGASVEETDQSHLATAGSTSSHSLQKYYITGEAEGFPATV

Tumor necrosis factor = Tumor necrosis factor (Homo sapiens, UniProt P01375); experiment: analog potency on TNFa NF-kB signaling – cell-based, revised, SAR follow-up (AID 2337); assay type: functional
Sequence of Tumor necrosis factor (P01375 whole entry, the tested form may be a part): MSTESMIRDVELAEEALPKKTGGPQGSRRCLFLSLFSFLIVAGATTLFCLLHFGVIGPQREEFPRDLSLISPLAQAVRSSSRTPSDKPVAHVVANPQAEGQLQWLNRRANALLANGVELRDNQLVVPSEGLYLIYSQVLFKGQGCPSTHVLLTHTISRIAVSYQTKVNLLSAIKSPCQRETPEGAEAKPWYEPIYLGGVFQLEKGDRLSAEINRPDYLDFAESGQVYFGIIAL

[4] = target: T2, Nucleotide-binding oligomerization domain-containing protein 1 (Homo sapiens, UniProt Q9Y239); experiment: blockers of NOD1 pathway activity – revised, SAR follow-up (AID 2333); assay type: functional
T2 sequence (Q9Y239 whole entry): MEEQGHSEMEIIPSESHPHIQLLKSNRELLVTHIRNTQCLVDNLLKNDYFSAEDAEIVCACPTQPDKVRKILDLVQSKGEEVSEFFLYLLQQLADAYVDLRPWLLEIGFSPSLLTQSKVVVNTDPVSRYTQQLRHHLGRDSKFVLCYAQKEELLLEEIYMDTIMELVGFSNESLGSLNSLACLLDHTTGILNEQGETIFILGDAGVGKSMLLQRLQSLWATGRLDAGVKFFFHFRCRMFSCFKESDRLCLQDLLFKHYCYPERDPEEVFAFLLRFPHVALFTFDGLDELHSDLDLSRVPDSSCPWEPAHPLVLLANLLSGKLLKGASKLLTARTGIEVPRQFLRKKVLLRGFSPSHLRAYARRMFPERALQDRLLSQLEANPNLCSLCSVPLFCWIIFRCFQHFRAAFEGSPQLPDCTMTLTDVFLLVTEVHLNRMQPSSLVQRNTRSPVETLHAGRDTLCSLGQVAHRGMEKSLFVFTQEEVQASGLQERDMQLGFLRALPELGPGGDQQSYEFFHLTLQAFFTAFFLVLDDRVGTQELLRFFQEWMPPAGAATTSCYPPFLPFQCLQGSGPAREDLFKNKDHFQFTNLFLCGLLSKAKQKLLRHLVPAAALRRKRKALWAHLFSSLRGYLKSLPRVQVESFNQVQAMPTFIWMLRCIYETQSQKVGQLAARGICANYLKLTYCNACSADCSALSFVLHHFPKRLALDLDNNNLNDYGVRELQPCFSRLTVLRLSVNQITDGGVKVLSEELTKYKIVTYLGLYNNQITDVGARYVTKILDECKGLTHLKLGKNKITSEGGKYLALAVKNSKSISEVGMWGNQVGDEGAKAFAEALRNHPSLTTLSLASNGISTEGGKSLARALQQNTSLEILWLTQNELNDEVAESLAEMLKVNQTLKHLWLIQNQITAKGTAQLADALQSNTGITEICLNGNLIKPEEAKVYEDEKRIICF

[5] = target: Nucleotide-binding oligomerization domain-containing protein 2 (Homo sapiens, UniProt Q9HC29); experiment: PubChem AID 2334; assay type: functional
Sequence of Nucleotide-binding oligomerization domain-containing protein 2 (Q9HC29 whole entry, the tested form may be a part): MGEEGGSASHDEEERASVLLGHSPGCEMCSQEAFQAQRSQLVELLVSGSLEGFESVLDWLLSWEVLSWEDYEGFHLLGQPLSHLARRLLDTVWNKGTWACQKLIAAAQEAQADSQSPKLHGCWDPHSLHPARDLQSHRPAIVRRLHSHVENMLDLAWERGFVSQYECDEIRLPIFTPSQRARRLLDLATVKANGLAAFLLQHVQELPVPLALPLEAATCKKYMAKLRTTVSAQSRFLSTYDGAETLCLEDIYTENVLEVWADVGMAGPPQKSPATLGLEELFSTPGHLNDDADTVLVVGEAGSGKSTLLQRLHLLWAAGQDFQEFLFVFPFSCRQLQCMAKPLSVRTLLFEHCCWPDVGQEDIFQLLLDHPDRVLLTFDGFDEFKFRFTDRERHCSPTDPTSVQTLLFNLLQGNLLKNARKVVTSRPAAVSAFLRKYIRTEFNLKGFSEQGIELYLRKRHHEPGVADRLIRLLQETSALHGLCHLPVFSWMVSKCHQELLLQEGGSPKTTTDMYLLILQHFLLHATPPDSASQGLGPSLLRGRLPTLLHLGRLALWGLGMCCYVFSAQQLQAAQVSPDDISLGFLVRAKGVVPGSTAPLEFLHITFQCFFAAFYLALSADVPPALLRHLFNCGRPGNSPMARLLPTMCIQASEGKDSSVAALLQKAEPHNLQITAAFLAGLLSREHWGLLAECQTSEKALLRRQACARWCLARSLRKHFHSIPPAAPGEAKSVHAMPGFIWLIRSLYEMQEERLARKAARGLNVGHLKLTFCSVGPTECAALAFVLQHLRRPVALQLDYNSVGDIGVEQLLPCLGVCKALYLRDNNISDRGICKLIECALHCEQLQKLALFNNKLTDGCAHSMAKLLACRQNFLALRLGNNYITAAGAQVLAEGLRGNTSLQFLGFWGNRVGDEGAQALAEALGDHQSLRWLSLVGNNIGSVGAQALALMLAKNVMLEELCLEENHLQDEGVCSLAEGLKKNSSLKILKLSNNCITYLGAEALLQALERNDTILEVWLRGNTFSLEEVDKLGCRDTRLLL

HEK293 [6] = experiment: cells; conditions: Homo sapiens
X-box-binding protein 1 = X-box-binding protein 1 (Homo sapiens, UniProt P17861); assay type: functional, Cricetulus griseus;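 also: confirmatory dose-response counter-screen serving a CHOP assay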
Sequence of X-box-binding protein 1 (P17861 whole entry): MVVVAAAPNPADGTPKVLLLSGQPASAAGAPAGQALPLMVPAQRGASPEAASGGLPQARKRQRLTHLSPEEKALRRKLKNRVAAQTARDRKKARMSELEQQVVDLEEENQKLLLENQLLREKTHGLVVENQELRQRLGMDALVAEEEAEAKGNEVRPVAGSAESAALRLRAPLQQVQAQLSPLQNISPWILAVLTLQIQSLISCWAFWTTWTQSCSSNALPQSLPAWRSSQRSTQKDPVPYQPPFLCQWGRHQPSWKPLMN

[7] = luciferase reporter signal suppression in cells – H4 neuroglioma cells, luminescence, dose response (AID 1990); assay type: functional, cell-based
HEK293 [8] = experiment: PMA/Ionomycin induced NF-kB luciferase assay in 293- NF-kB-Luc stable cells. [Related pubchem assays: 1299, 1270, 1295, 1375, 1287, 1281, 1293, 1291, 1289, 1280, 465, 1364, 1282, 1372, 1365, 1370, 1367, 1366, 1269, 1373, 1292, 1290, 1302, 1371, 1283, 1271, 1294, 1374, 1368, 1369 ]; assay type: functional, cell-based; conditions: Homo sapiens
[9] = target: Luciferin 4-monooxygenase (Photinus pyralis, UniProt P08659); experiment: In vitro luciferase assay using purified luciferase. [Related pubchem assays: 1299, 1270, 1295, 1375, 1287, 1281, 1293, 1291, 1289, 1280, 465, 1364, 1282, 1372, 1365, 1370, 1367, 1366, 1266, 1373, 1292, 1290, 1302, 1371, 1283, 1271, 1294, 1374, 1368, 1369 ]
Sequence of Luciferin 4-monooxygenase (P08659 whole entry): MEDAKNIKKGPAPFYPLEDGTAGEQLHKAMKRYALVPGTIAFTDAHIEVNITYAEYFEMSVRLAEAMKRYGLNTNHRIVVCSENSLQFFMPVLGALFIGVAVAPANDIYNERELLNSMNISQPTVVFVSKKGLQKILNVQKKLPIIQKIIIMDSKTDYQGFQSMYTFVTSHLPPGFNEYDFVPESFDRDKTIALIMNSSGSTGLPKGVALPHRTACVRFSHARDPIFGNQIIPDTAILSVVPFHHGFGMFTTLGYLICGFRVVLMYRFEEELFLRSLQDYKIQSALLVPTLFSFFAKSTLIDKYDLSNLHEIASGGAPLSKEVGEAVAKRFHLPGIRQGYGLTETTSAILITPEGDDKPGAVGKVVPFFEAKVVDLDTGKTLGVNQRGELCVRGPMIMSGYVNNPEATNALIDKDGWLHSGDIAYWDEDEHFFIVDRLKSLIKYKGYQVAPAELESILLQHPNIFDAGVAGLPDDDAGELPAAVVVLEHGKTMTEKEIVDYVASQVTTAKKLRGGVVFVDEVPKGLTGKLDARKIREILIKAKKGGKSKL

[10] = Luminescence Cell-Based Dose Response HTS to Identify Inhibitors of 5'UTR Stem-Loop Driven Prion Protein mRNA Translation in H4 Neuroglioblastoma Cells. [Related pubchem assays: 1827 (Project Summary), 1813 (Primary HTS)]; assay type: functional
[11] = target: T3, Heat shock factor protein 1 (Mus musculus, UniProt P38532); experiment: decrease of HSF1-responsive luciferase luminescence – cell-based, NIH3T3, dose retest, confirmation (AID 2382); assay type: functional;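 also: NIH3T3 fibroblasts with HSF1-driven luciferase reporter stressed by proteasome inhibitor MG132; luminescence from HSF1-driven luciferase expression after 8 hours of MG132 stress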
T3 sequence (P38532 whole entry): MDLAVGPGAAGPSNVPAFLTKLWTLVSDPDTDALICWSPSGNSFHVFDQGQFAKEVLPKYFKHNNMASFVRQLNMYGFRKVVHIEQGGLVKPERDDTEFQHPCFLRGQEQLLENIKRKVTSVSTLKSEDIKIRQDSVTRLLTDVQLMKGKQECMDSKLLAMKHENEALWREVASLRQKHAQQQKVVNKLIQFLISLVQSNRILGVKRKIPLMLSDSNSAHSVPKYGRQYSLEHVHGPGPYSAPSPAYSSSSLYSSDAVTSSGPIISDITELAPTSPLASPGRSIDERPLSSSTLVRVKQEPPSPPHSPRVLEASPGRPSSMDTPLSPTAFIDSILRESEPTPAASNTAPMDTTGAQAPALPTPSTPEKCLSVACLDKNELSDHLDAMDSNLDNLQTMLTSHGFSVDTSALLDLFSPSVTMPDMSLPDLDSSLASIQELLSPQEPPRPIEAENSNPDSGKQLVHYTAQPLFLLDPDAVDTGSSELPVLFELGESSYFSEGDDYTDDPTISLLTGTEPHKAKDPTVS

[12] = Luminescence-based counterscreen assay for KLF5 inhibitors: dose response cell-based high throughput screening assay to identify cytotoxic compounds using the IEC-6 intestinal epithelial cell line. [Related pubchem assays: 1700 (Primary screen.), 1834 (Confirmation screen.), 1858 (Summary AID.), 1905 (Counterscreen.)]; assay type: functional
HEK293 [13] = experiment: Cytotoxicity assay in HEK293 cells. [Related pubchem assays (depositor defined):AID1266, AID1269, AID1270, AID1271, AID1280, AID1281, AID1282, AID1283, AID1287, AID1289, AID1290, AID1291, AID1292, AID1293, AID1294, AID1295, AID1299, AID1302, AID1364, AID1365, AID1366, AID1367, AID1369, AID1370, AID1371, AID1372, AID1373, AID1374, AID1375, AID1384 …; assay type: functional, cell-based; conditions: Homo sapiens
[14] = HEK-293T viability loss after treatment – luminescence, T-cell screen hits, cytotoxicity control for TCR NF-kB inhibitor project, dose response (AID 489026); assay type: functional, cell-based;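 also: cells exposed to compound about 14 hours before the viability readout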
[15] = target: T4, Microphthalmia-associated transcription factor (Homo sapiens, UniProt O75030); experiment: reducers of TRPM1 reporter luminescence, concentration series – cell-based, SK-MEL-5, cherry-picked, set 3, MITF inhibitor project, dose response (AID 493073); assay type: functional;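 also: SK-MEL-5 melanoma cells with luciferase driven by the MITF target TRPM1 promoter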
T4 sequence (O75030 whole entry): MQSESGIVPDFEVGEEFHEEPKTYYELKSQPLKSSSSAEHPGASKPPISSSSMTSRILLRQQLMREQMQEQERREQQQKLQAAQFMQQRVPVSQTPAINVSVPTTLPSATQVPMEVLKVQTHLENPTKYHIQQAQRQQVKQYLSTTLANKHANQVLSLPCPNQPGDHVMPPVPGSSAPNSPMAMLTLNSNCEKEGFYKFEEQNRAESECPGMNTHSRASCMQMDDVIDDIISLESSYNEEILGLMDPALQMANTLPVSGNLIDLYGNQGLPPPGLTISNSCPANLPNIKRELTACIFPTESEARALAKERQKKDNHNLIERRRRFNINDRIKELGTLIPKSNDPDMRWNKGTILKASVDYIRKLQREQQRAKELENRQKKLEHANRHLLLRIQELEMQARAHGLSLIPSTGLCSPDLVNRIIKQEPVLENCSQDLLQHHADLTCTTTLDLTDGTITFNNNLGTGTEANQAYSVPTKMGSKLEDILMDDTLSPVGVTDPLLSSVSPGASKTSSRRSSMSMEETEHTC

[16] = target: Voltage-gated N-type calcium channel alpha-1B subunit/Amyloid beta A4 precursor protein-binding family A member 1 (Homo sapiens, UniProt Q00975+Q02410); experiment: disruptors of Mint-PDZ/N-type channel peptide interaction – biochemical, HTRF, set 2, SAR follow-up (AID 434980); assay type: functional
Estrogen receptor [17] = target: T1, Estrogen receptor
[18] = target: Scavenger receptor class B member 1 (Mus musculus, UniProt Q61009); experiment: mouse SR-BI DiI-HDL uptake blockers – ldlA[mSR-BI] cells, fluorescence, cherry pick, dose response (AID 493194); assay type: functional, cell-based;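 also: cellular uptake of fluorescent DiI-labeled HDL measured as cell fluorescence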
Sequence of Scavenger receptor class B member 1 (Q61009 whole entry): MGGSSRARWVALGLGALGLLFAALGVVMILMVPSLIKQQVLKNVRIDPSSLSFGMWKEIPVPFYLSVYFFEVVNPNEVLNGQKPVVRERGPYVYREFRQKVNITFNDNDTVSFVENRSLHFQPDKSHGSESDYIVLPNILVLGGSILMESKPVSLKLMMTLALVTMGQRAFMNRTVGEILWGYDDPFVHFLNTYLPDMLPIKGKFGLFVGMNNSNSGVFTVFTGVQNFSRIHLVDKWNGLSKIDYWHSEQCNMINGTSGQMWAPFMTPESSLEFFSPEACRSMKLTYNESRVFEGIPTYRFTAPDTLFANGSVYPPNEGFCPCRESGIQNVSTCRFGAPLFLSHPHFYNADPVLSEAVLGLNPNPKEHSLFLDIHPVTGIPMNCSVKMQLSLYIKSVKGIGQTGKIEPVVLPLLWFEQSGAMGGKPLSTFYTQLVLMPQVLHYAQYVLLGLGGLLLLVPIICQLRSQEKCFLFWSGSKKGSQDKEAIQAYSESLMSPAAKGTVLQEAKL

Sequence of Acyl-homoserine lactone acylase PvdQ (Q9I194 24-193 limits assumed): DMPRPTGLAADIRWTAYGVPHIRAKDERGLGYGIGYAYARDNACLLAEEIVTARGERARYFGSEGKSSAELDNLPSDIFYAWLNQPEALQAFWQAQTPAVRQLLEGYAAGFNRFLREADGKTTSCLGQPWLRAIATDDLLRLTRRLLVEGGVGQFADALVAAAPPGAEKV
Sequence of Acyl-homoserine lactone acylase PvdQ (Q9I194 217-762 limits assumed): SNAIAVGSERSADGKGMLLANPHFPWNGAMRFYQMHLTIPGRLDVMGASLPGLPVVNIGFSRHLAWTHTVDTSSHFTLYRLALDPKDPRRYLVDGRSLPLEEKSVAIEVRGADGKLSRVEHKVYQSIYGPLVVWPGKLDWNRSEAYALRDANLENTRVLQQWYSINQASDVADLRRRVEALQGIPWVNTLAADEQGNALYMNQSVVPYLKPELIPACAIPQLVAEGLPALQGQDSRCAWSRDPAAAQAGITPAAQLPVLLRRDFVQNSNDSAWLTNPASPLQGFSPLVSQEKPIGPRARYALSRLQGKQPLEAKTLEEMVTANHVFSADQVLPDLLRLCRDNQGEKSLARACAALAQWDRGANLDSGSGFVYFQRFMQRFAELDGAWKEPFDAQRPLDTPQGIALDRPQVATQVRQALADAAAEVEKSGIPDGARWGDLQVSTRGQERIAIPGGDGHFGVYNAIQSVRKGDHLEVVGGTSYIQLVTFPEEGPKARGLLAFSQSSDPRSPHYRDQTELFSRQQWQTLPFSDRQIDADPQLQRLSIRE

Cc1ccc([S+]([O-])c2ccc(C)cc2)cc1
AC50 [1]: 2.65 µM (active)

O=C(O)c1ccc(CSc2nc3c(c(=O)[nH]2)CCC3)cc1
IC50 (Neutrophil collagenase): > 39.8 µM (inactive)
IC50 (Collagenase 3): > 39.8 µM (inactive)

Cc1ccc(Cn2c(NC(=O)c3ccco3)nc3ccccc32)cc1
CC50 [2]: 10.1 µM (active)
EC50 (Estrogen receptor [3]): 14.6 µM (active)
IC50 (Tumor necrosis factor): > 20 µM (inactive)
IC50 [4]: > 20 µM (inactive)
IC50 [5]: > 20 µM (inactive)
IC50 (HEK293 [6]): > 20 µM (inactive)

CCC(C)(C)NC(=O)C(c1cccn1C)N(C(=O)Cn1nnc2ccccc21)c1ccc(F)cc1 (configuration not stated)
Absolute IC50 (XBP1) (X-box-binding protein 1): 10 µM

COC(=O)C1=C(CN2CCCc3ccccc32)NC(=O)NC1c1ccc(F)cc1 (configuration not stated)
EC50 [7]: 6.69 µM (inconclusive)
EC50 (HEK293 [8]): 9.82 µM (not active)
EC50 [9]: > 8 µM (not active)
EC50 [10]: 12.4 µM (active)
EC50 [11]: 8.88 µM (active)
IC50 [12]: > 39.8 µM (not active)
EC50 (HEK293 [13]): > 8 µM (inactive)
IC50 [14]: > 80 µM (inactive)
AC50 [15]: 2.16 µM (active)

CN(CCc1ccccc1)C(=O)c1cc(-c2ccco2)nc2ccccc12
IC50 [16]: > 56.8 µM (inactive)

CCOC(=O)c1c(Nc2nc(C)c(C(=O)NC)s2)sc(C)c1C
IC50 (Estrogen receptor [17]): 42.3 µM (not active)
AC50 [18]: 11.6 µM (active)

— ChEMBL document CHEMBL1201862, “PubChem BioAssay data set” (2004)
